Results as given in US9689244B2, “Process for water wetting oil-wet surfaces” (BASF SE, priority 2012, dated 2017).

How the values were obtained:
Type in all cases: physicochemical
[1] = Cloud point of conventional surfactants in saline water; settings: 1% in water having a salinity of 50.000 ppm NaCl
Method: For comparative purposes, two conventional surfactants were tested at a concentration of 1% in water having a salinity of 50.000 ppm NaCl and in the usual manner their cloud point was determined.

[2] = Surface tension (DuNouy ring method) and critical micelle formation concentration
Method: The surface tension was measured as a function of the concentration of the surface active components using the DuNouy ring method (according to Din 53914). The critical micelle formation concentration (cmc) was derived in the usual manner from the measurement graph.
The salts used were NaCl and CaCl2 at a weight ratio of 9:1 NaCl/CaCl2.

[3] = Interfacial tension between aqueous solution and oil phase (spinning drop tensiometer)
Method: The interfacial tension between aqueous solutions of tested compounds and an oil phase were measured with a spinning drop tensiometer (DataPhysics). As the composition of crude oils may vary decane, dodecane, and hexadecane were used as model oils in order to study the range of application of the tested compounds.

[4] = Modification of the wettability: contact angle of oil on oil wet polyethylene platelets; settings: for Contact angle: dodecane
Method: Polyethylene platelets (3 cm×2 cm) were use as hydrophobic model surfaces for oil wet rocks. As a first step, 5 μl decane or 5 μl dodecane were applied to the polyethylene platelets. The hydrophobic liquids spread on the hydrophobic surface. The contact angle between the oil and the polyethylene surface was measured using a usual contact angle measuring device (DataPhysics) and consequently a value of 0° was obtained. The oil wet platelets were submerged into an aqueous solution of 1 g/l by weight of the compound to be tested. […] The contact angle between oil and the polyethylene surface was measured as function of time. Furthermore, it was inspected visually whether oil droplets became detached from the surface.

[5] = 25 °C, brine NaCl/CaCl2 (9:1) 10,000 ppm
[6] = 25 °C, brine NaCl/CaCl2 (9:1) 100,000 ppm
[7] = 60 °C, brine NaCl/CaCl2 (9:1) 10,000 ppm
[8] = 60 °C, brine NaCl/CaCl2 (9:1) 100,000 ppm

| Substance | Cloud point [1] | ST At 1 g/l ([2]; 25 °C, brine 10,000 ppm) | ST At 1 g/l ([2]; 25 °C, brine 100,000 ppm) | cmc [2, 5] | cmc [2, 6] | ST At 1 g/l ([2]; 60 °C, brine 10,000 ppm) | ST At 1 g/l ([2]; 60 °C, brine 100,000 ppm) | cmc [2, 7] | cmc [2, 8] | IFT after 60 min, 1 g/l of sample in aqueous phase, decane ([3]; 25 °C, brine 10,000 ppm) | IFT after 60 min, 1 g/l of sample in aqueous phase, decane ([3]; 25 °C, brine 100,000 ppm) | IFT after 60 min, 1 g/l of sample in aqueous phase, decane ([3]; 60 °C, brine 10,000 ppm) | IFT after 60 min, 1 g/l of sample in aqueous phase, decane ([3]; 60 °C, brine 100,000 ppm) | IFT after 60 min, 1 g/l of sample in aqueous phase, docecane ([3]; 25 °C, brine 10,000 ppm) | IFT after 60 min, 1 g/l of sample in aqueous phase, docecane ([3]; 60 °C, brine 10,000 ppm) | IFT after 60 min, 1 g/l of sample in aqueous phase, hexadecane ([3]; 25 °C, brine 10,000 ppm) | IFT after 60 min, 1 g/l of sample in aqueous phase, hexadecane ([3]; 60 °C, brine 10,000 ppm) | further results |
| --- | --- | --- | --- | --- | --- | --- | --- | --- | --- | --- | --- | --- | --- | --- | --- | --- | --- | --- |
| C13-alcohol+20 EO | 86 °C |  |  |  |  |  |  |  |  |  |  |  |  |  |  |  |  |  |
| C16/18-alcohol+80 EO | 87 °C |  |  |  |  |  |  |  |  |  |  |  |  |  |  |  |  |  |
| Saccharose * 40 EO diester with C12/C18 fatty acid [Compound S2] |  | 34.6 mN/m | 34.6 mN/m | 0.03 g/L | 0.03 g/L | 27.7 mN/m | 28.3 mN/m | 0.04 g/L | 0.02 g/L | 2.3 mN/m | 2.1 mN/m | 0.46 mN/m | 0.36 mN/m | 2.0 mN/m | 0.34 mN/m | 2.2 mN/m | 0.40 mN/m |  |
| Saccharose* 20 EO monoester with C16/C18 fatty acid [Compound S1] |  | 33.7 mN/m | 34.5 mN/m | 0.03 g/L | 0.02 g/L | 29.6 mN/m | 29.1 mN/m | 0.03 g/L | 0.02 g/L | 3.9 mN/m | 2.4 mN/m | 0.45 mN/m | 1.2 mN/m | 2.9 mN/m | 0.19 mN/m | 4.0 mN/m | 0.55 mN/m | Interfacial tension (IFT) between water and hydrocarbons of different chain lengths, change on addition of wettability modifier ([3]; hydrocarbons of different chain lengths): decreases significantly; Contact angle ([4]; 25° C., brine 10,000 ppm + 1 g/l S1, time 0 min): 6 °; Contact angle ([4]; 25° C., brine 10,000 ppm + 1 g/l S1, time 30 min): 13 °; Contact angle ([4]; 25° C., brine 10,000 ppm + 1 g/l S1, time 45 min): 14 °; Contact angle ([4]; 25° C., brine 10,000 ppm + 1 g/l S1, time 60 min): 17 °; Contact angle ([4]; 25° C., brine 10,000 ppm + 1 g/l S1, time 90 min): 22 °; Contact angle ([4]; 25° C., brine 10,000 ppm + 1 g/l S1, time 180 min): beginning; Contact angle ([4]; 25° C., brine 100,000 ppm + 1 g/l S1, time 0 min): 7 °; Contact angle ([4]; 25° C., brine 100,000 ppm + 1 g/l S1, time 30 min): 26 °; Contact angle ([4]; 25° C., brine 100,000 ppm + 1 g/l S1, time 45 min): 74 °; Contact angle ([4]; 25° C., brine 100,000 ppm + 1 g/l S1, time 60 min): oil already detached; Time of contact after which oil is detached from the surface ([4]; 60° C.): 2 min; Contact angle ([4]; 60° C., brine 10,000 ppm + 1 g/l S1, time 60 min): beginning; Contact angle ([4]; 60° C., brine 100,000 ppm + 1 g/l S1, time 0 min): oil already |
